{"source": "paper PMC11593036", "about": "“Comparative Characterization of Three Homologous Glutathione Transferases from the Weed Lolium perenne” (Foods, 2024)", "assay_in_all_cases": "steady-state kinetics", "assay_type_in_all_cases": "biochemical", "key": {"LpGSTU2": {"target": "T1, LpGSTU2 (Lolium perenne, UniProt A0A165FYT0)", "T1 construct": "gene GST; full-length cDNA from leaf mRNA in pEXP5-CT/TOPO, E. coli BL21(DE3), GSH-Sepharose; reverse primer carries stop codon (no C-terminal tag); primer-encoded N-terminus MASEKSS", "T1 sequence (A0A165FYT0 1-226)": "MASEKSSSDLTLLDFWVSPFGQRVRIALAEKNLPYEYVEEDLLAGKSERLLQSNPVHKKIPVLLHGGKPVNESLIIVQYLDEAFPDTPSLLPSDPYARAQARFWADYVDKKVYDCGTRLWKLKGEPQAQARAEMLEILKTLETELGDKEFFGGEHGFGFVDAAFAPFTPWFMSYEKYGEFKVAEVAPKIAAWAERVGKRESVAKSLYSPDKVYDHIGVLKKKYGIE", "conditions": "co-substrate GSH; read-out: Km (mM) (CDNB)", "description": "steady-state kinetics on LpGSTU2"}, "LpGSTU25 [1]": {"target": "T2, LpGSTU25 (Lolium perenne, UniProt A0A165FYR3)", "T2 construct": "gene GST; full-length cDNA from leaf mRNA in pEXP5-CT/TOPO, E. coli BL21(DE3), GSH-Sepharose; reverse primer carries stop codon (no C-terminal tag); primer-encoded N-terminus MASEKSS", "T2 sequence (A0A165FYR3 1-226)": "T1 sequence (A0A165FYT0 1-226) with N32S, E48D, V56A, S93A, T117S, L122F, R131K, H215F, K221Q", "conditions": "co-substrate GSH; read-out: Km (mM) (CDNB)", "description": "(§1) steady-state kinetics on LpGSTU25"}, "LpGSTU25 [2]": {"target": "T3, LpGSTU25 (Lolium perenne, UniProt A0A165FYR3, F215H)", "T3 construct": "gene GST; full-length cDNA from leaf mRNA in pEXP5-CT/TOPO, E. coli BL21(DE3), GSH-Sepharose; reverse primer carries stop codon (no C-terminal tag); primer-encoded N-terminus MASEKSS", "T3 sequence (A0A165FYR3 1-226 F215H)": "T1 sequence (A0A165FYT0 1-226) with N32S, E48D, V56A, S93A, T117S, L122F, R131K, K221Q", "conditions": "co-substrate GSH; read-out: Km (mM) (CDNB)", "description": "as §1"}, "LpGSTU25 [3]": {"target": "T4, LpGSTU25 (Lolium perenne, UniProt A0A165FYR3, F215K)", "T4 construct": "gene GST; full-length cDNA from leaf mRNA in pEXP5-CT/TOPO, E. coli BL21(DE3), GSH-Sepharose; reverse primer carries stop codon (no C-terminal tag); primer-encoded N-terminus MASEKSS", "T4 sequence (A0A165FYR3 1-226 F215K)": "T1 sequence (A0A165FYT0 1-226) with N32S, E48D, V56A, S93A, T117S, L122F, R131K, H215K, K221Q", "conditions": "co-substrate GSH; read-out: Km (mM) (CDNB)", "description": "as §1"}, "LpGSTU25 [4]": {"target": "T5, LpGSTU25 (Lolium perenne, UniProt A0A165FYR3, F215L)", "T5 construct": "gene GST; full-length cDNA from leaf mRNA in pEXP5-CT/TOPO, E. coli BL21(DE3), GSH-Sepharose; reverse primer carries stop codon (no C-terminal tag); primer-encoded N-terminus MASEKSS", "T5 sequence (A0A165FYR3 1-226 F215L)": "T1 sequence (A0A165FYT0 1-226) with N32S, E48D, V56A, S93A, T117S, L122F, R131K, H215L, K221Q", "conditions": "co-substrate GSH; read-out: Km (mM) (CDNB)", "description": "as §1"}, "LpGSTU25 [5]": {"target": "T6, LpGSTU25 (Lolium perenne, UniProt A0A165FYR3, F215R)", "T6 construct": "gene GST; full-length cDNA from leaf mRNA in pEXP5-CT/TOPO, E. coli BL21(DE3), GSH-Sepharose; reverse primer carries stop codon (no C-terminal tag); primer-encoded N-terminus MASEKSS", "T6 sequence (A0A165FYR3 1-226 F215R)": "T1 sequence (A0A165FYT0 1-226) with N32S, E48D, V56A, S93A, T117S, L122F, R131K, H215R, K221Q", "conditions": "co-substrate GSH; read-out: Km (mM) (CDNB)", "description": "as §1"}, "LpGSTU25 [6]": {"target": "T7, LpGSTU25 (Lolium perenne, UniProt A0A165FYR3, F215S)", "T7 construct": "gene GST; full-length cDNA from leaf mRNA in pEXP5-CT/TOPO, E. coli BL21(DE3), GSH-Sepharose; reverse primer carries stop codon (no C-terminal tag); primer-encoded N-terminus MASEKSS", "T7 sequence (A0A165FYR3 1-226 F215S)": "T1 sequence (A0A165FYT0 1-226) with N32S, E48D, V56A, S93A, T117S, L122F, R131K, H215S, K221Q", "conditions": "co-substrate GSH; read-out: Km (mM) (CDNB)", "description": "as §1"}, "LpGSTU25 [7]": {"target": "T8, LpGSTU25 (Lolium perenne, UniProt A0A165FYR3, F215T)", "T8 construct": "gene GST; full-length cDNA from leaf mRNA in pEXP5-CT/TOPO, E. coli BL21(DE3), GSH-Sepharose; reverse primer carries stop codon (no C-terminal tag); primer-encoded N-terminus MASEKSS", "T8 sequence (A0A165FYR3 1-226 F215T)": "T1 sequence (A0A165FYT0 1-226) with N32S, E48D, V56A, S93A, T117S, L122F, R131K, H215T, K221Q", "conditions": "co-substrate GSH; read-out: Km (mM) (CDNB)", "description": "as §1"}, "LpGSTU25 [8]": {"target": "T9, LpGSTU25 (Lolium perenne, UniProt A0A165FYR3, F215V)", "T9 construct": "gene GST; full-length cDNA from leaf mRNA in pEXP5-CT/TOPO, E. coli BL21(DE3), GSH-Sepharose; reverse primer carries stop codon (no C-terminal tag); primer-encoded N-terminus MASEKSS", "T9 sequence (A0A165FYR3 1-226 F215V)": "T1 sequence (A0A165FYT0 1-226) with N32S, E48D, V56A, S93A, T117S, L122F, R131K, H215V, K221Q", "conditions": "co-substrate GSH; read-out: Km (mM) (CDNB)", "description": "as §1"}, "LpGSTU25 [9]": {"target": "T10, LpGSTU25 (Lolium perenne, UniProt A0A165FYR3, F215Y)", "T10 construct": "gene GST; full-length cDNA from leaf mRNA in pEXP5-CT/TOPO, E. coli BL21(DE3), GSH-Sepharose; reverse primer carries stop codon (no C-terminal tag); primer-encoded N-terminus MASEKSS", "T10 sequence (A0A165FYR3 1-226 F215Y)": "T1 sequence (A0A165FYT0 1-226) with N32S, E48D, V56A, S93A, T117S, L122F, R131K, H215Y, K221Q", "conditions": "co-substrate GSH; read-out: Km (mM) (CDNB)", "description": "as §1"}, "LpGSTU5": {"target": "T11, LpGSTU5 (Lolium perenne, UniProt A0A165FYU2)", "T11 construct": "gene GST; full-length cDNA from leaf mRNA in pEXP5-CT/TOPO, E. coli BL21(DE3), GSH-Sepharose; reverse primer carries stop codon (no C-terminal tag); primer-encoded N-terminus MASEKSS", "T11 sequence (A0A165FYU2 1-226)": "T1 sequence (A0A165FYT0 1-226) with N32S, E48D, S93A, T117S", "conditions": "co-substrate GSH; sigmoid, positive cooperativity between the two H-sites; read-out: Km (mM) (CDNB)", "description": "steady-state kinetics on LpGSTU5"}}, "note": "Substitutions are numbered along the chain they refer to.", "data": [{"compound": "O=[N+]([O-])c1ccc(Cl)c([N+](=O)[O-])c1", "note": "[CDNB]", "values": [{"measurement": "Km", "setting": "LpGSTU2", "value": "0.47 ± 0.03", "unit": "mM"}, {"measurement": "Km", "setting": "LpGSTU25 [1]", "value": "0.28 ± 0.03", "unit": "mM"}, {"measurement": "Km", "setting": "LpGSTU25 [2]", "value": "0.68 ± 0.08", "unit": "mM"}, {"measurement": "Km", "setting": "LpGSTU25 [3]", "value": "0.77 ± 0.07", "unit": "mM"}, {"measurement": "Km", "setting": "LpGSTU25 [4]", "value": "0.25 ± 0.02", "unit": "mM"}, {"measurement": "Km", "setting": "LpGSTU25 [5]", "value": "0.92 ± 0.32", "unit": "mM"}, {"measurement": "Km", "setting": "LpGSTU25 [6]", "value": "0.33 ± 0.03", "unit": "mM"}, {"measurement": "Km", "setting": "LpGSTU25 [7]", "value": "0.31 ± 0.03", "unit": "mM"}, {"measurement": "Km", "setting": "LpGSTU25 [8]", "value": "0.29 ± 0.02", "unit": "mM"}, {"measurement": "Km", "setting": "LpGSTU25 [9]", "value": "0.91 ± 0.12", "unit": "mM"}, {"measurement": "Km", "setting": "LpGSTU5", "value": "0.1 ± 0.04", "unit": "mM"}]}]}
